According to patent publication US20060009431A1, “Nitrosated and nitrosylated compounds, compositions and methods use” (NitroMed, Inc., priority 2003, published 2006):
Where two headings read alike, the source gives them in different places.

Assays:
[1] = system: human coronary artery smooth muscle cells (CASMC); experiment: Vascular smooth muscle cell (SMC) antiproliferation assay; type: cell-based; details: viable cell count (Trypan Blue exclusion) ~68 hours after compound addition
Protocol: Suppression of Proliferation of Human Coronary Artery Smooth Muscle Cells (CASMC)
Vascular Smooth Muscle Cell (SMC) Antiproliferation Assay
The cells used in this assay were human coronary artery smooth muscle cells (CASMC) supplied by Clonetics Corp. (San Diego, Calif.). They were maintained in SmGM-2 growth medium (Clonetics Corp.), which consisted of modified MCDB 131 medium supplemented with 5% (v/v) fetal bovine serum (FBS), 0.5 ng/mL human recombinant epidermal growth factor (EGF), 2 ng/mL human recombinant fibroblast growth factor (FGF), 5 μg/mL bovine insulin, 50 μg/mL gentamicin sulfate, and 50 ng/mL amphotericin B under humidified 95% air-5% CO2 at 37° C. Cells were used for experiments up to about 17 cumulative population doublings (i.e., passage 9); at this age they still stained positive for smooth muscle actin, a protein marker for smooth muscle cells.
For the SMC antiproliferation assay, the cells were seeded at 3×10^4 viable cells in 2 mL of SmGM-2 medium per well of a Corning 24 tissue culture well plate (Corning, N.Y.). Stock solutions of the test compounds were prepared just prior to addition to the cells by dissolving in DMSO at a concentration of 1000 times the highest concentration to be assayed. This stock solution was diluted, as required, with DMSO to lower concentrations. On the same day the cells were seeded, but after they had attached and spread out (about 3 hours), each test compound in varying concentrations (2 μL of the diluted stock solutions) was added to four replicate wells (n=4) for each concentration. Control cultures received 2 μL of DMSO per well (n=4). On the following morning, the cultures were examined microscopically and their condition recorded. On the third day after test compound addition (˜68 hours), the cultures were examined microscopically again and the viable cells counted with an hemacytometer following trypsinization with 0.25% trypsin-1 mM EDTA. Trypan Blue dye exclusion was used to discriminate between viable and dead cells. The results were usually presented as % of the control viable cell count (mean±SEM) and were used to determine the IC50 for the inhibition of proliferation of vascular smooth muscle cells.

[2] = Homo sapiens, n=4, read-out: IC 50 for the inhibition of proliferation of vascular smooth muscle cells, Nitrosated and/or Nitrosylated Compound
[3] = n=4, read-out: IC 50 for the inhibition of proliferation of vascular smooth muscle cells, Non-nitrosated and/or Non-nitrosylated Compound

Row | melting point | Structure (SMILES) | other results
1 |  | C[C@]12CC[C@@H]3c4ccc(OC(=O)CC5(SN=O)C6CC7CC(C6)CC5C7)cc4CC[C@H]3[C@@H]1CC[C@@H]2OC(=O)C(F)(F)F (stereo partly drawn) [Example 17c, (1S,11S,14S,15S,10R)-15-Methyl-5-(2-(2-(nitrosothio)adamantan-2-yl)acetyloxy)tetracyclo(8.7.0.0<2,7>0.0<11,15>)heptadeca-2,4,6-trien-14-yl 2,2,2-trifluoroacetate] | IC 50 for the inhibition of proliferation of vascular smooth muscle cells, Nitrosated and/or Nitrosylated Compound ([1]; n=4): Non-inhibitory
2 | 140 °C (dec.) | C[C@]12CC[C@@H]3c4ccc(O)cc4/C(=N/OCC(=O)NCCO[N+](=O)[O-])C[C@H]3[C@@H]1CC[C@@H]2O | 
3 | 102 to 105 °C | C[C@]12CC[C@@H]3c4ccc(O)cc4/C(=N/OCC(=O)N4CCC(CCO[N+](=O)[O-])CC4)C[C@H]3[C@@H]1CC[C@@H]2O | 
4 |  | C[C@]12CC[C@@H]3c4ccc(OC(=O)CC5(S)C6CC7CC(C6)CC5C7)cc4CC[C@H]3[C@@H]1CC[C@@H]2OC(=O)C(F)(F)F (stereo partly drawn) [Example 17b, (1S,11S,14S,15S,10R)-15-methyl-5-(2-(2-sulfanyladamantan-2-yl)acetyloxy)tetracyclo(8.7.0.0<2,7>0.0<11,15>)heptadeca-2,4,6-trien-14-yl 2,2,2-trifluoroacetate] | IC 50 for the inhibition of proliferation of vascular smooth muscle cells, Non-nitrosated and/or Non-nitrosylated Compound ([1]; n=4): cytostatic
5 |  | C[C@]12CC[C@@H]3c4ccc(OC(=O)CC5(S)C6CC7CC(C6)CC5C7)cc4CC[C@H]3[C@@H]1CC[C@@H]2O (stereo partly drawn) [Example 49, (1S,11S,14S,15S,10R)-14-hydroxy-15-methyltetracyclo(8.7.0.0<2,7>0.0<11,15>)heptadeca-2,4,6-trien-5-yl 2-(2-sulfanyladamantan-2-yl)acetate] | IC50 [1, 3]: 4 µM
6 |  | C[C@]12CC[C@@H]3c4ccc(OC(=O)CCC(=O)OCCC5(SN=O)C6CC7CC(C6)CC5C7)cc4CC[C@H]3[C@@H]1CC[C@@H]2O (stereo partly drawn) [Example 25, (1S,11S,14S,15S,10R)-14-Hydroxy-15-methyltetracyclo(8.7.0.0<2,7>0.0<11,15>)heptadeca-2,4,6-trien-5-yl 2-(2-(nitrosothio)adamantan-2-yl)ethyl butane-1,4-dioate] | IC50 [1, 2]: 4 µM
7 |  | C[C@]12CC[C@@H]3c4ccc(OC(=O)CC5(SN=O)C6CC7CC(C6)CC5C7)cc4CC[C@H]3[C@@H]1CC[C@@H]2O (stereo partly drawn) [Example 18, (1S,11S,14S,15S,10R)-14-hydroxy-15-methyltetracyclo(8.7.0.0<2,7>0.0<11,15>)heptadeca-2,4,6-trien-5-yl 2-(2-(nitrosothio)adamantan-2-yl)acetate] | IC50 [1, 2]: 9 µM
8 | 140 °C | COc1ccc(C=C2c3ccccc3C(=NO)c3ccccc32)cc1O [Example 52, 5-((10-(Hydroxyimino)(9-anthrylidene))methyl)-2-methoxyphenol] | IC50 [1, 3]: 0.6 µM
9 | 75 to 77 °C | CC(C)(SN=O)C1COC(=O)N1CCOC(=O)CO/N=C1\C[C@@H]2[C@H](CC[C@]3(C)[C@@H](O)CC[C@@H]23)c2ccc(O)cc21 (some centres unmarked) | 
10 |  | C[C@]12CC[C@@H]3c4ccc(O)cc4C(=NOCC(=O)O)C[C@H]3[C@@H]1CC[C@@H]2O [Example 35a, 2-(((1S,11S,14S,15S,10R)-5,14-dihydroxy-15-methyltetracyclo(8.7.0.0<2,7>0.0<11-15>)heptadeca-2,4,6-trien-8-ylidene)azamethoxy)acetic acid, reference compound] | IC50 [1, 3]: > 80 µM
11 | 143 to 145 °C | C[C@]12CC[C@@H]3c4ccc(O)cc4/C(=N/OCC(=O)N4CCC(CO[N+](=O)[O-])CC4)C[C@H]3[C@@H]1CC[C@@H]2O | 
12 | 146 to 149 °C | C[C@]12CC[C@@H]3c4ccc(OC(=O)COCC(=O)O[C@H]5CO[C@H]6[C@@H]5OC[C@H]6O[N+](=O)[O-])cc4CC[C@H]3[C@@H]1CC[C@@H]2O | 
13 | 140 to 143 °C | C[C@]12CC[C@@H]3c4ccc(OC(=O)c5ccccc5)cc4CC[C@H]3[C@@H]1CC[C@@H]2OC(=O)CCC(=O)OCCC1(S)C2CC3CC(C2)CC1C3 (some centres unmarked) | 
14 |  | C[C@]12CC[C@@H]3c4ccc(OC(=O)c5ccccc5)cc4CC[C@H]3[C@@H]1CC[C@@H]2OC(=O)CCC(=O)O[C@H]1CO[C@H]2[C@@H]1OC[C@H]2O[N+](=O)[O-] [Example 15, (1S,11S,14S,15S,10R)-15-Methyl-5-phenylcarbonyloxytetracyclo(8.7.0.0<2,7>0.0<11,15>)heptadeca-2,4,6-trien-14-yl(1S,2S,5S,6R)-6-(nitrooxy)-4,8-dioxabicyclo(3.3.0)oct-2-yl butane-1,4-dioate] | IC50 [1, 2]: > 80 µM
15 | 40 °C | CC(C)(SN=O)C1COC(=O)N1CCOC(=O)COc1ccc2c(c1)CC[C@@H]1[C@@H]2CC[C@]2(C)[C@@H](O)CC[C@@H]12 (some centres unmarked) | 
16 | 50 to 52 °C | C[C@]12CC[C@@H]3c4ccc(OC(=O)CCCC(=O)NCC5(SN=O)CCCCC5)cc4CC[C@H]3[C@@H]1CC[C@@H]2O | 
17 |  | CN(CCO[N+](=O)[O-])C(=O)CO/N=C1\C[C@@H]2[C@H](CC[C@]3(C)[C@@H](O)CC[C@@H]23)c2ccc(O)cc21 [35 b] | IC 50 for the inhibition of proliferation of vascular smooth muscle cells, Nitrosated and/or Nitrosylated Compound ([1]; n=4): Non-inhibitory
18 |  | CC1(C)CCC(S)(CCOC(=O)CCC(=O)Oc2ccc3c(c2)CC[C@@H]2[C@@H]3CC[C@]3(C)[C@@H](O)CC[C@@H]23)CC1 [Example 28h, (1S,11S,14S,15S,10R)-14-hydroxy-15-methyltetracyclo(8.7.0.0<2,7>0.0<11,15>)heptadeca-2,4,6-trien-5-yl 2-(4,4-dimethyl-1-sulfanylcyclohexyl)ethyl butane-1,4-dioate] | IC50 [1, 3]: 14 µM
19 | 63 to 65 °C | COc1ccc(C=C2c3ccccc3C(=O)c3ccccc32)cc1OCC(=O)N1CCC(CO[N+](=O)[O-])CC1 [Example 53, 2-(2-Methoxy-5-((10-oxo(9-anthrylidene))methyl)phenoxy)-1-(4-((nitrooxy)methyl)piperidyl)ethan-1-one] | 
20 |  | CC1(C)CCC(CCOC(=O)CCC(=O)Oc2ccc3c(c2)CC[C@@H]2[C@@H]3CC[C@]3(C)[C@@H](O)CC[C@@H]23)(SN=O)CC1 [Example 28i, (1S,11S,14S,15S,10R)-14-Hydroxy-15-methyltetracyclo(8.7.0.0<2,7>0.0<11,15>)heptadeca-2,4,6-trien-5-yl 2-(4,4-dimethyl-1-(nitrosothio)cyclohexyl)ethyl butane-1,4-dioate] | IC50 [1, 2]: 13 µM
21 | 135 to 137 °C | COc1ccc(/C=C/C(=O)Nc2ccccc2C(=O)OCC(=O)NCC(C)(C)SN=O)cc1OC [Example 1, (N-(2-Methyl-2-(nitrosothio)propyl)carbamoyl)methyl 2-((2E)-3-(3,4-dimethoxyphenyl)prop-2-enoylamino)benzoate] | 

Row | Structure (SMILES) | melting point | other results
22 | C[C@]12CC[C@@H]3c4ccc(OC(=O)CCC(=O)O[C@H]5CO[C@H]6[C@@H]5OC[C@H]6O[N+](=O)[O-])cc4CC[C@H]3[C@@H]1CC[C@@H]2O [Example 32b, (1S,11S,14S,15S,10R)-14-Hydroxy-15-methyltetracyclo(8.7.0.0<2,7>0.0<11,15>)heptadeca-2,4,6-trien-5-yl(1S,2S,5S,6R)-6-(nitrooxy)-4,8-dioxabicyclo(3.3.0)oct-2-yl butane-1,4-dioate] | 163 to 165 °C | IC50 [1, 2]: 8 µM
23 | CC(C)(CNC(=O)COc1ccc2c(c1)CC[C@@H]1[C@@H]2CC[C@]2(C)[C@@H](O)CC[C@@H]12)SN=O [Example 42, 2-((1S,11S,14S,15S,10R)-14-Hydroxy-15-methyltetracyclo(8.7.0.0<2,7>0.0<11,15>)heptadeca-2,4,6-trien-5-yloxy)-N-(2-methyl-2-(nitrosothio)propyl)acetamide] | 40 °C | IC50 [1, 2]: 9 µM
24 | C[C@]12CC[C@@H]3c4ccc(OC(=O)CCC(=O)OCCC5(S)C6CC7CC(C6)CC5C7)cc4CC[C@H]3[C@@H]1CC[C@@H]2O (stereo partly drawn) [Example 30, (1S,11S,14S,15S,10R)-14-Hydroxy-15-methyltetracyclo(8.7.0.0<2,7>0.0<11,15>)heptadeca-2,4,6-trien-5-yl 2-(2-sulfanyladamantan-2-yl)ethyl butane-1,4-dioate] | 133 to 136 °C | IC50 [1, 3]: 4 µM
25 | CN(CCO[N+](=O)[O-])C(=O)CO/N=C1\C[C@@H]2[C@H](CC[C@]3(C)[C@@H](O)CC[C@@H]23)c2ccc(O)cc21 | 125 to 127 °C (dec.) | 
